Data from patent US9821000B2, “Compounds, compositions and corresponding uses for preventing and/or treating of dyslipidemia” (CENTRE NATIONAL DE LA RECHERCHE SCIENTIFIQUE (CNRS), priority 2013, dated 2017).

Legend:
Type in all cases: cell-based, Saccharomyces cerevisiae
hem1Δ yeasts [1] = test: Restoration of growth of lipo-intoxicated hem1Δ yeasts (drop test on agar); conditions: SFA accumulation conditions; 5 μl drops on agar; after three days
Experimental: FIG. 3B—The hem1Δ yeasts were cultivated in conditions of SFA accumulation as indicated. 5 μl drops of OAG, LPA and oleic acid in the concentrations indicated were then deposited on the surface of the agar medium. The restoration of growth of the hem1Δ yeasts is observed in the formation of colonies after three days.
The strain carrying the hem1Δ strain is cultivated, under aerobic conditions, under stirring and at 28° C., in a YPG^A liquid medium (YPG (yeast extract 1% (m/v), peptone 1% (m/v) and glucose 2% (m/v)) supplemented with δ-aminolevulinic acid (ALA) at 80 μg/mL). Lipotoxicity by saturated fatty acids (SFA) is prompted by depletion of unsaturated fatty acids (UFA)—the synthesis of which is dependent on the presence of haem (prosthetic grouping of the enzyme Ole1p especially)—by transfer into YPG^+ medium (YPG supplemented with ergosterol at 80 μg/mL to compensate for the depletion in sterol obtained under these conditions). The lipotoxicity can be induced in a solid medium YPG^++agar 2% (m/v) in transferring 3500 cells (hem1Δ coming from a pre-culture in YPG^A)/cm^2 or *alternatively in a liquid medium in inoculating 2·10^6 cells/mL of YPG^+. Classically, the effects of lipotoxicity on SFA are analyzed 7 h after the transfer into YPG^+ medium. The capacity of a compound to counter the deleterious effects of lipotoxicity with SFA is for its part evaluated successively with the addition of this compound on (or in) the YPG^+ transfer medium after seeding with cells.
1) Screening of compounds: Following the induction of lipotoxicity with SFA (for hem1Δ cultivated in a solid medium), 5 μL drops of solutions of different compounds at 10 mM in dimethylsulfoxide (DMSO) or in ethanol (EtOH) are deposited on the surface of agar. The capacity of a compound to counter the lipo-induced stoppage of cell growth is estimated by the appearance of a halo of hem1Δ colonies at the position of the deposit of said compound after three days of culture at 28° C. (cf. Deguil et al., 2011).

QM strain = test: Toxicity test on QM strain (growth inhibition haloes); conditions: after three days
Experimental: 5 μl drops of OAG, LPA or oleic acid were deposited, from stock solutions in the concentrations indicated, on the surface of an agar medium on which the QM strain had been preliminarily spread. […] These haloes are on the contrary not observed in the presence of LPA and OAG.
At the same time, wild strains (WT) and QM are cultivated in aerobic conditions under stirring and at 28° C., in a YPG liquid medium before seeding 3500 cells per cm^2 of YPG+agar 2% (m/v). Following this transfer to solid medium, 1 μL drops of solutions of different compounds at 1, 10 and 100 mM in DMSO or EtOH are deposited on the surface of the agar. Separately, deposits of DMSO and EtOH are also made in order to assess the intrinsic toxicity of these two solvents. After three days of culture of 28° C., the toxicity of the tested compounds is evaluated by comparing the diameters of the growth inhibition haloes obtained for the deposits of undissolved solvents with those of the deposits of different concentrations of compounds tested.

hem1Δ yeasts [2] = test: Phospholipid fatty acid content by mass spectrometry in lipo-intoxicated hem1Δ yeasts
Experimental: The hem1Δ yeasts were cultivated in standard conditions (control) or in conditions of SFA accumulation without (Ø) or with the addition of 100 μM of oleic acid, LPA or OAG as indicated.
FIG. 6A—After 7 h of incubation, the phospholipids (PL) were extracted and the different species of phosphatidylcholine (PC), which constitute the predominantly present PL were analyzed by mass spectrometry in positive mode, according to Pineau et al. (2008).
FIG. 6B—All the species of PL detectable in these conditions of mass spectrometry were analyzed to globally quantify the content in SFA forms.
The hem1Δ strain is cultivated in a YPG^A, YPG^+ or YPG^+ liquid medium+200 μM of compound to be tested in aerobic conditions, under stirring and at 28° C. for 7 h, starting from an initial cell concentration of 2·10^6 cells/mL. At the end of the culture, 10^8 cells are collected in order to carry out the extraction of the total lipids. After the cells have been put in suspension in 1 mL of distilled water at 4° C., 500 μL of glass beads (Ø 0.6 mm) are added and the whole mixture then undergoes three sequences of 20 seconds at 5000 rpm in a stirrer (the tubes are kept on ice between each of the three sequences). The cellular lysate then obtained, complemented with water for rinsing the beads (1 mL), is then transferred into a 40 mL glass tube (Corex™) and then the lipids are extracted by using a methanol:chloroform ratio of 2:1 (v/v). Initially, 6 mL of methanol are added and the entire mixture is vortexed for 30 seconds and then incubated for 15 minutes at 65° C. Once the mixture has been cooled to ambient temperature, […] of chloroform is added and then the entire mixture is again vortexed for 30 seconds before allowing the extraction to take place for 16 h. Subsequently, the sample is centrifuged for 12 minutes at 10000 g and then the supernatant is transferred into a new Corex™ tube. After the addition of 2 mL of chloroform and then 4 mL of distilled water, the entire mixture is vortexed for 30 seconds and then centrifuged for 8 minutes at 3000 g. After elimination of the resultant upper phase, the lower organic phase is collected in a hemolysis tube made of glass. Finally, the solvent is evaporated under a nitrogen stream at 80° C. to obtain total cell lipid samples.
The samples of total cell lipids are put back into suspension in 1 mL of dichloromethane in being vortexed for 30 seconds. The entire mixture is deposited on a silica column (BOND ELUT-SI, 100 mg 1 mL) preconditioned with 3 mL of methanol and then 2 mL of dichloromethane successively. The fraction retained by the column is then washed with 2 mL of dichloromethane and then 2 mL of acetone successively. Finally, 2 mL of a mixture of chloroform/methanol/water 50:45:5 (v/v/v) are deposited on the column and the phospholipids thus eluted are collected in a glass hemolysis tube. The solvent is evaporated under nitrogen at 80° C. to obtain the samples of cellular phospholipids.
Once put back into suspension in 100 μL of mixture Mix^− (isopropanol/acetonitrile/water 2:1:1 (v/v/v)+triethylamine 1% (v/v)) or mixture Mix^+ (isopropanol/acetonitrile/water 2:1:1 (v/v/v)+formic acid 1% (v/v)), the samples are analyzed by mass spectrometry (Electro Spray Ionization-Mass Spectrometry (ESI-MS)) in negative or positive mode respectively and the results obtained serve to analyze the fatty acid content of the different species of phospholipids.

## CCCCCCCC/C=C\CCCCCCCC(=O)O [oleic acid, reference compound]
hem1Δ yeasts [1]
  restoration of growth of lipo-intoxicated hem1Δ yeasts (formation of colonies): restore the growth
QM strain; QM strain on agar medium
  toxicity for cells that do not synthesize triglycerides: toxicity
QM strain; QM strain, 5 μl drops on agar
  haloes of growth inhibition (absence of colonies): haloes of growth inhibition (absence of colonies) can be observed
hem1Δ yeasts [2]; hem1Δ yeast model
  plasticity of membranes previously lipo-intoxicated by SFAs: restores the plasticity of the membranes
hem1Δ yeasts [2]; hem1Δ, SFA accumulation, 100 μM compound, 7 h
  production of di-unsaturated phospholipids (level of PC species 36:2): increase of the level of this species
